# Test results as given in the supplement of paper PMC12076712.
# What was measured:
# BCR = target: T1, BCR (UniProt P11274); assay: pIC50, kinobeads binding competition; details: cell material: Lysate mix
# T1 sequence (whole entry): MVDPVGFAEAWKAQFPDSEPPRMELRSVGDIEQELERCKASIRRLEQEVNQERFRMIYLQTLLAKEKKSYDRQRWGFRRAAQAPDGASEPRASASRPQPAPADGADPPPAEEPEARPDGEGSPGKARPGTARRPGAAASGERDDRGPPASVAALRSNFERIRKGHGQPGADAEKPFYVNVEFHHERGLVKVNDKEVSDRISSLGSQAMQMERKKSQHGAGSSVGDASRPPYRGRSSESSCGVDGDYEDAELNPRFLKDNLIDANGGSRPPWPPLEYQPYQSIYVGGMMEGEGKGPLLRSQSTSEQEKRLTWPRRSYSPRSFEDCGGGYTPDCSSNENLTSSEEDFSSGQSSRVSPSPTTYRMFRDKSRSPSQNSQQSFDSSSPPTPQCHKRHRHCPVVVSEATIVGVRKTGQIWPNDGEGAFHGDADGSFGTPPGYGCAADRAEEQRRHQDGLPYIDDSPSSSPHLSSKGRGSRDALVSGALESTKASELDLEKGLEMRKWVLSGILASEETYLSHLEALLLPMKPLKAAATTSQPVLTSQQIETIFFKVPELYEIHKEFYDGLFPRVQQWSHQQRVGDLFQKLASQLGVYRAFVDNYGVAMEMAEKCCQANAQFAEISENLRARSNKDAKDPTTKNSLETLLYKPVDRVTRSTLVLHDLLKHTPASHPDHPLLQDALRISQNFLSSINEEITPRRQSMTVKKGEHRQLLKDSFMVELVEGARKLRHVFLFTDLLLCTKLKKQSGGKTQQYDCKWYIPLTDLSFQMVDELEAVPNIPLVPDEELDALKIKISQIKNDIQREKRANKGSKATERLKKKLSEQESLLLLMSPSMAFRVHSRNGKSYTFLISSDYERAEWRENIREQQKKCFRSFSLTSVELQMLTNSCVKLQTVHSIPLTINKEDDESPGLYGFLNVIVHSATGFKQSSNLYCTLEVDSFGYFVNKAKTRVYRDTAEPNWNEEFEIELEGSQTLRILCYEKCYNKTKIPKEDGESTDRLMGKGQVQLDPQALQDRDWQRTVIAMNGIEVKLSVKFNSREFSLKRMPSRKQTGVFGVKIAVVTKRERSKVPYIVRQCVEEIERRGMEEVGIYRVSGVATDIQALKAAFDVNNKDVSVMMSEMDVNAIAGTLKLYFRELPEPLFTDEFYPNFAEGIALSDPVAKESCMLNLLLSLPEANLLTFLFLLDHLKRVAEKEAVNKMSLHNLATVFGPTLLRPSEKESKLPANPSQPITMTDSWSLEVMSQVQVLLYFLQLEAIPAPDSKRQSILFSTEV
# Outline: (§1)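 Live Jurkat cells were treated with nine compound concentrations (top 30 μM, 1:4 steps) or DMSO for 60 min at 37 °C before lysis. Alternatively, Jurkat lysate or a 1:1:1:1 HEK293/K-562/HepG2/placenta lysate mix was incubated with nine concentrations (top 30 μM, 1:5 steps) for 60 min at 4 °C. Kinobeads-bound proteins were digested and quantified by TMT10 LC-MS/MS. pIC50 came from logistic dose-response fits (R drc package) of fold changes versus DMSO, in biological duplicates.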
# MAP3K15 = target: T2, MAP3K15 (UniProt Q6ZN16); assay: pIC50, kinobeads binding competition; details: cell material: Lysate mix
# T2 sequence (whole entry): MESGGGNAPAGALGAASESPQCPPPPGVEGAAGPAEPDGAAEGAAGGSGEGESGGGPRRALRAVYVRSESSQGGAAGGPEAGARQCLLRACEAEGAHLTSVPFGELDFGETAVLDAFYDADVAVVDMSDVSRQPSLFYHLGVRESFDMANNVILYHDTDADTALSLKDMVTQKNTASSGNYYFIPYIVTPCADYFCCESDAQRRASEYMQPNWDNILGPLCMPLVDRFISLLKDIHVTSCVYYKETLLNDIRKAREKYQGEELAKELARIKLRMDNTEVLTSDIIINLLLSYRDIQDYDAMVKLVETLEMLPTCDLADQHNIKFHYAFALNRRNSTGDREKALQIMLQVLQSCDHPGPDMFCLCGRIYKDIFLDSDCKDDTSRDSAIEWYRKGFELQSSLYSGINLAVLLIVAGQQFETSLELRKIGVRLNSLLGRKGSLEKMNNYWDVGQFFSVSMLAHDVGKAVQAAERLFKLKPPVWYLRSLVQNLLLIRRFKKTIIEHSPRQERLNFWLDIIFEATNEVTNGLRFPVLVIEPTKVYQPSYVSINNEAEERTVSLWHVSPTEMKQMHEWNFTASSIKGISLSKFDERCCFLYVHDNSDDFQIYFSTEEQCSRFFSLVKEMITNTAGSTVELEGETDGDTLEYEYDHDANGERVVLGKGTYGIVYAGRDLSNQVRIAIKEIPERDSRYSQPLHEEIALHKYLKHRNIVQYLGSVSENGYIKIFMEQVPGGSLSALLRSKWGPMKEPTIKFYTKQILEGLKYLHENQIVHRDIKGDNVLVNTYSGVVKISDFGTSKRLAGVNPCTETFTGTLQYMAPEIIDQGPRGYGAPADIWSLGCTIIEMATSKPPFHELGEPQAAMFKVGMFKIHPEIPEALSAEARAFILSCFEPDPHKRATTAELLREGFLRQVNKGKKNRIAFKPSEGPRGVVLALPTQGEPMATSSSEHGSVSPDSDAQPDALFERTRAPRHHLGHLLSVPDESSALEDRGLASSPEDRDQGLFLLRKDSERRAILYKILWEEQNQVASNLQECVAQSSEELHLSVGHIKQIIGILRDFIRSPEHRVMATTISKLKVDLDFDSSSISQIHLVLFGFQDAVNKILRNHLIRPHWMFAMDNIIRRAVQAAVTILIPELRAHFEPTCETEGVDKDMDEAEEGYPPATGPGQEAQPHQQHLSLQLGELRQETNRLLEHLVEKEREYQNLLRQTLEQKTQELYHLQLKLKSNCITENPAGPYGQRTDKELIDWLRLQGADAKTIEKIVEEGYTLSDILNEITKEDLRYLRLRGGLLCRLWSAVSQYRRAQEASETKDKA
# Outline: as §1
Compound,pIC50 (BCR),pIC50 (MAP3K15)
C#CCNC(=O)c1cc(Nc2cc(C)[nH]n2)nc(N2CCN(Cc3ccc(S(=O)(=O)F)cc3)CC2)n1,< 4.52,4.92
C#CCNC(=O)c1cc(Nc2cc(C3CC3)[nH]n2)nc(N2CCN(Cc3ccc(S(=O)(=O)F)cc3)CC2)n1,< 4.52,< 4.52
CCNC(=O)c1cc(Nc2cc(C)[nH]n2)nc(N2CCN(Cc3ccc(S(=O)(=O)F)cc3)CC2)n1,< 4.52,4.94

# Results, then the molecule that gave them:
pIC50 (BCR),pIC50 (MAP3K15),Compound
< 4.52,< 4.52,Cc1cc(Nc2cc(C(=O)NCCNC(=O)OC3CC/C=C/CCC3)nc(N3CCN(Cc4ccc(S(=O)(=O)F)cc4)CC3)n2)n[nH]1 (configuration not stated)
< 4.52,< 4.52,O=C(NCCNC(=O)c1cc(Nc2cc(C3CC3)[nH]n2)nc(N2CCN(Cc3ccc(S(=O)(=O)F)cc3)CC2)n1)OC1CC/C=C/CCC1 (configuration not stated)
< 4.52,< 4.52,CCNC(=O)c1cc(Nc2cc(C3CC3)[nH]n2)nc(N2CCN(Cc3ccc(S(=O)(=O)F)cc3)CC2)n1
